Assay [1] deals with catalytic domain of human PARP14 (Homo sapiens (Human), UniProt Q460N5). The assay can be described thus: Enzymatic assay for inhibition of PARP14 (DELFIA, auto-modification with biotin-NAD). It is filed as biochemical. Particulars: auto-modification of PARP14 by biotin-NAD, 50 nM PARP14, 3 μM biotin-NAD. The essentials:
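His-TEV-tagged PARP14 catalytic domain (50 nM) preincubated with compound 30 min at 25 °C, then auto-modified with 3 μM biotin-NAD for 3 h at 25 °C in HEPES pH 8 buffer with DTT. IC50 from 4-parameter fit, rucaparib and DMSO as controls.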

For a further assay, the system named is 4T1 cells. The experiment in a line: Inhibition of tumor growth in the 4T1 murine syngeneic model. The assay is classed as in vivo, female BALB/c mice. Particulars: 4T1 orthotopic in mammary fat pad, 500 mg/kg PO BID*21 days, treatment group versus vehicle group, study terminated D20. The text has this: FIGS. 3A and 4A illustrate that a PARP14 inhibitor (Example 235) reduces tumor growth in the murine syngeneic models (A) 4T1 and (B) LL/2. For the 4T1 study (FIGS. 3A and 3B), female BALB/c mice were inoculated orthotopically in the mammary fat pad with 1×10^5 4T1 cells (ATCC, CRL-2539™) for tumor development. Seven days after tumor inoculation, 16 mice with tumor size ranging from 41-78 mm^3 (average tumor size 56 mm^3) were selected and assigned into 2 groups using stratified randomization with 8 mice in each group based upon their tumor volumes. The treatments were started from the next day post randomization (defined as randomization day DO) and were treated with vehicle (0.5% methylcellulose +0.2% Tween 80), or the compound of Example 235 (500 mg/kg PO BID*21 days). The tumor sizes were measured three times per week during the treatment. The entire study was terminated on D20.
(§1) Statistical significance, calculated using 2way ANOVA multiple comparisons in which each treatment group was compared to vehicle control, is indicated by an asterisk. Statistics were performed on groups with less than 20% animal loss (D20 for 4T1, D17 for LL/2). Survival benefit was determined for the LL/2 study (FIG. 4B). Individual mice were euthanized once they reached the termination endpoint (TV>2000 mm3). […]

A further assay has as its system LL/2 cells. The experiment in a line: Inhibition of tumor growth and survival in the LL/2 murine syngeneic model. Particulars: LL/2 subcutaneous right flank, 500 mg/kg PO BID*21 days, treatment group versus vehicle group, study terminated D21. It is filed as in vivo, female C57BL/6 mice.
Source text: For the LL/2 study (FIGS. 4A-4C), female C57BL/6 mice were inoculated subcutaneously in the right flank with 5×10^5 LL/2 cells (ATCC, CRL-1642™) for tumor development. Five days after tumor inoculation, 16 mice with tumor size ranging from 37-72 mm^3 (average tumor size 51 mm^3) were selected and assigned into 2 groups using stratified randomization with 8 mice in each group based upon their tumor volumes. The treatments were started from the next day post randomization (defined as randomization day DO) and were treated with vehicle (0.5% methylcellulose +0.2% Tween 80), or the compound of Example 235 (500 mg/kg PO BID*21 days). The tumor sizes were measured three times per week during the treatment. The entire study was terminated on D21.
as §1, with “mm3). The time from treatment initiation to termination was deemed as its survival time and plotted in a Kaplan-Meier survival curve format. Mice remaining at study end date of 21 days were euthanized at day 21 after treatment initiation.” for “mm3).”

Where a name gives a salt, the structure may show the parent alone.

As a reminder, the IC50 is the point on the concentration scale where inhibition reaches its midpoint. The low end stands for greater potency in that assay, the high end for weaker potency in that assay.

catalytic domain of human PARP14, sequence (Q460N5 1611-1801): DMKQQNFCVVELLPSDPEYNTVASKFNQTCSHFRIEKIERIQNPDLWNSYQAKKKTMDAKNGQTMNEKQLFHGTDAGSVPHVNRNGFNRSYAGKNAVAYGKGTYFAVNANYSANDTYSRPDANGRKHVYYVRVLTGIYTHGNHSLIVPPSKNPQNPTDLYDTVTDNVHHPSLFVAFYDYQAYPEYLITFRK

In assay [1], `O=c1[nH]c(CS[C@H]2CC[C@H](O)CC2)nc2cc(OCC3CC3)cc(F)c12` [Example 235, 7-(Cyclopropylmethoxy)-5-fluoro-2-(((trans-4-hydroxycyclohexyl)thio)methyl)quinazolin-4(3H)-one] registered an IC50 of less than 1 µM. Moreover, the Tumor growth inhibition came out at 31% in the assay with 4T1 cells and 63% in the assay on LL/2 cells.

In assay [1], `CS(=O)(=O)N1CCC[C@@H](Nc2ccc3c(=O)[nH]c(CSC4CCOCC4)nc3c2)C1` [Example 193, (R)-7-((1-(methylsulfonyl)piperidin-3-yl)amino)-2-(((tetrahydro-2H-pyran-4-yl)thio)methyl)quinazolin-4(3H)-one] returned an IC50 of less than 1 µM.

In assay [1], `O=c1[nH]c(CSC2CCNCC2)nc2cc(NC3CCCC3)cc(Cl)c12` [Example 206, 5-Chloro-7-(cyclopentylamino)-2-((piperidin-4-ylthio)methyl)quinazolin-4(3H)-one Hydrochloride] had an IC50 of less than 1 µM.

For the compound `O=c1[nH]c(CSC2CCOCC2)nc2cc(NC3CCCNC3)ccc12` (centres unmarked) [Example 127, 7-(3-Piperidylamino)-2-(tetrahydropyran-4-ylsulfanylmethyl)-3H-quinazolin-4-one], the IC50 in assay [1] was greater than 10 µM.

Take `Cc1cccc2c(=O)[nH]c(C(C)SC3CCOCC3)nc12` (centres unmarked) [Example 7]: the IC50 in assay [1] was greater than 10 µM.

In the case of `O=c1[nH]c(CSC2CCOCC2)nc2cc(OCC3COC3)cc(F)c12` [Example 343], the IC50 in assay [1] was less than 1 µM.

In turn, `CC(=O)N[C@H]1CC[C@H](SCc2nc3cc(OCC4CCOCC4)cc(F)c3c(=O)[nH]2)CC1` [Example 426] registered an IC50 in assay [1] of less than 1 µM.

`O=c1[nH]c(CSC2CCOCC2)nc2cc(OC[C@@H]3CCCO3)cc(F)c12` [Example 321b, (S)-5-Fluoro-2-(((tetrahydro-2H-pyran-4-yl)thio)methyl)-7-((tetrahydrofuran-2-yl)methoxy)quinazolin-4(3H)-one] had an IC50 in assay [1] of less than 1 µM.

Compound `Cc1cccc2c(=O)[nH]c(CSC3CCC(CN)CC3)nc12` (centres unmarked) [Example 64, 2-(((4-(Aminomethyl)cyclohexyl)thio)methyl)-8-methylquinazolin-4(3H)-one Trifluoroacetate] displayed an IC50 in assay [1] of less than 1 µM.

In turn, `O=c1[nH]c(CSC2CCOCC2)nc2cc(NCCN3CCOCC3)cc(F)c12` [Example 287, 5-Fluoro-7-((2-morpholinoethyl)amino)-2-(((tetrahydro-2H-pyran-4-yl)thio)methyl)quinazolin-4(3H)-one] yielded an IC50 in assay [1] of less than 1 µM.

On to `O=c1[nH]c(CS[C@H]2CC[C@H](O)CC2)nc2cc(NC3CCC3)ccc12` [Example 194, 7-(cyclobutylamino)-2-((((1R,4R)-4-hydroxycyclohexyl)thio)methyl)quinazolin-4(3H)-one], for which the IC50 in assay [1] is less than 1 µM.

For `Cn1ccnc1Nc1ccc2c(=O)[nH]c(CSC3CCOCC3)nc2c1` [Example 88, 7-((1-Methyl-1H-imidazol-2-yl)amino)-2-(((tetrahydro-2H-pyran-4-yl)thio)methyl)quinazolin-4(3H)-one], in assay [1], the IC50 is greater than 10 µM.

The values are drawn from US10562891B2, “Quinazolinones as PARP14 inhibitors” (Ribon Therapeutics Inc., priority 2017, dated 2020).
